Values of other authors as cited in patent US11532831B1, “Redox-active compounds and uses thereof” (Palo Alto Research Center Incorporated, priority 2021, dated 2022).

Experiments:
[1] = on platinum (footnote); cited from earlier work
[2] = cited from earlier work

Substance	Kinetic rate constant [1] [cm/s]	Solubility at pH 7 [2]
ethylenediaminetetraacetatoferrate(2-) (Fe(II)-EDTA)/ethylenediaminetetraacetatoferrate(1-) (Fe(III)-EDTA) [Fe(EDTA)]	0.026	
iron(II) (Fe^2+)/iron(III) (Fe^3+) [Fe^2+/Fe^3+]		insoluble
bis(trimethylammoniopropyl)ferrocene [BTMAP-Fc]		1.9M
